Values after ≈ are worked out from the molar mass of the structure shown. Where two headings read alike, the source gives them in different places.

In data set [1] the test system is HepG2 cells. In words: Cytotoxicity MTT assay in HepG2 cells. Type of data set: cell-based. The conditions noted are these: Homo sapiens. As for the experimental part: Additionally, the antimicrobial compounds were analyzed for cytotoxicity. […] We utilized the standard MTT assay (Promega CellTiter 96) and GraphPad Prism 7 software to determine EC50 values for each analogue. Briefly, 20,000 HepG2 cells in 200 μl of the ATCC recommended media were seeded in each well of a 96-well plate with a moisture barrier created in the outermost wells. The cells were allowed to attach overnight at 37° C., and then observed under phase contrast microscopy for proper morphological characteristics. […] Once incubations were complete, the spectrophotometric absorbance of the samples was measured at a wavelength of 595 nm. […] For the HepaRG assay, NoSpin HepaRG™ cells (Lonza, cat #NSHPRG) were thawed and plated with 20,000 cells per well. They were allowed to attach for 4 h (optimal DME profile per Lonza's testing) before dosing following the identical protocol as above.

Data set [2] deals with Burkholderia cenocepacia. In words: microbe, parasite or virus in culture. The format is cell-based.
The subject of data set [3] is Burkholderia thailandensis. Put plainly: microbe, parasite or virus in culture. Type of data set: cell-based.
Data set [4] relates to Staphylococcus aureus. In words: microbe, parasite or virus in culture.
The nature of data set [5]: Toxicity study in mice, body weight over 7 days. Type of data set: in vivo. The following applies: 6-week-old Balb/c mice. From the text:
The vehicle is 40% PEG300 solution in 0.9% NaCl. […] Thus, the compounds are useful for in vivo antimicrobial administration.

Setting [6] is: MRSA, read-out: Staphylococcus aureus MIC, MRSA strain HM-467.
The mark [7] stands for this setting: MRSA, read-out: Staphylococcus aureus MIC, MRSA strain NK-41886.
The mark [8] stands for this setting: MRSA, read-out: Staphylococcus aureus MIC, MRSA strain NR-13533.
[9] abbreviates: MRSA, read-out: Staphylococcus aureus MIC, MRSA strain NR-28983.
The mark [10] stands for this setting: MRSA, read-out: Staphylococcus aureus MIC, MRSA strain NR-41875.
Setting [11] is: MRSA, read-out: Staphylococcus aureus MIC, MRSA strain NR-41876.
[12] abbreviates: MRSA, read-out: Staphylococcus aureus MIC, MRSA strain NR-41877.
The mark [13] stands for this setting: MRSA, read-out: Staphylococcus aureus MIC, MRSA strain NR-41878.
Where [14] appears, read: read-out: Staphylococcus aureus MIC, VSSA NR-49121.

A word on the EC50: it is the concentration at which the effect is half-maximal. A low value points to an effect from little substance. In the case of `Oc1ccc(Sc2c[nH]c3ccccc23)cc1` [Compound 156I, 4-((1H-indol-3-yl)thio)phenol], the response in data set [1] was half-maximal at 12.1 µg/mL (≈ 50.1 µM) (EC50). The MBC in data set [2] is 150 µg/mL (≈ 622 µM); in data set [3] it was 100 µg/mL (≈ 414 µM). Further, the MIC in data set [2] and in data set [3] was 50 µg/mL (≈ 207 µM) throughout.
For `Brc1ccc(Sc2c[nH]c3ccccc23)cc1` [Compound 156K, 3-((4-bromophenyl)thio)-1H-indole], the EC50 in data set [1] is 27.6 µg/mL (≈ 90.7 µM).
As to `Brc1ccc(Sc2c[nH]c3ccc(Br)cc23)cc1` [Compound 172D, 5-bromo-3-((4-bromophenyl)thio)-1H-indole], the MIC in data set [4] (setting [6]) stood at 12.5 µg/mL (≈ 32.6 µM); in data set [4] (setting [7]), 1.56 µg/mL (≈ 4.07 µM); in data set [4] (setting [8]) it was 1.56 µg/mL (≈ 4.07 µM); in data set [4] (setting [9]) it was 1.56 µg/mL (≈ 4.07 µM); in data set [4] (setting [10]), 3.13 µg/mL (≈ 8.17 µM); in data set [4] (setting [11]) it was 1.56 µg/mL (≈ 4.07 µM). The figures for the MIC in data set [4] (setting [12]), in data set [4] (setting [13]) and in data set [4] (setting [14]) were 3.13 µg/mL (≈ 8.17 µM), 1.56 µg/mL (≈ 4.07 µM) and 1.56 µg/mL (≈ 4.07 µM), respectively.
For `COc1ccc2[nH]cc(Sc3ccc(Br)cc3)c2c1` [Compound 172E, 3-((4-bromophenyl)thio)-5-methoxy-1H-indole], in data set [1], the EC50 worked out at 23.3 µg/mL (≈ 69.7 µM).
On to `Oc1ccccc1Sc1c[nH]c2ccc(Br)cc12` [Compound 174AI, 2-((5-bromo-1H-indol-3-yl)thio)phenol], for which the EC50 in data set [1] stood at 27.4 µg/mL (≈ 85.6 µM). Besides, the “toxicity by body weight” value in data set [5] was “did not have significant toxicity”. Besides, the MIC in data set [4] (setting [6]) turned out to be 16 µg/mL (≈ 50 µM); in data set [4] (setting [7]), 8 µg/mL (≈ 25 µM); in data set [4] (setting [8]), 8 µg/mL (≈ 25 µM); in data set [4] (setting [9]) it was 8 µg/mL (≈ 25 µM); in data set [4] (setting [10]), 8 µg/mL (≈ 25 µM); in data set [4] (setting [11]) it was 8 µg/mL (≈ 25 µM). The MIC in data set [4] (setting [12]), in data set [4] (setting [13]) and in data set [4] (setting [14]) was 8 µg/mL (≈ 25 µM) each time.
For `Brc1ccc2[nH]cc(Sc3c[nH]c4ccccc34)c2c1` [Compound 174AL, 3-((1H-indol-3-yl)thio)-5-bromo-1H-indole], in data set [1], the concentration giving a half-maximal response (EC50) worked out at 26.1 µg/mL (≈ 76 µM).
Consider `OCc1ccccc1Sc1c[nH]c2ccc(Br)cc12` [Compound 174AT, (2-((5-bromo-1H-indol-3-yl)thio)phenyl)methanol], for which the MIC came to 32 µg/mL (≈ 95.7 µM) in data set [4] (setting [6]); 16 µg/mL (≈ 47.9 µM) in data set [4] (setting [7]); 16 µg/mL (≈ 47.9 µM) in data set [4] (setting [8]); 16 µg/mL (≈ 47.9 µM) in data set [4] (setting [9]); 16 µg/mL (≈ 47.9 µM) in data set [4] (setting [10]); 16 µg/mL (≈ 47.9 µM) in data set [4] (setting [11]). In addition, the MIC in data set [4] (setting [12]), in data set [4] (setting [13]) and in data set [4] (setting [14]) was 16 µg/mL (≈ 47.9 µM) each time.
With `Fc1ccccc1Sc1c[nH]c2ccc(Br)cc12` [Compound 174AU, 5-bromo-3-((2-fluorophenyl)thio)-1H-indole], the “toxicity by body weight” value in data set [5] was “did not have significant toxicity”. Further, the MIC in data set [4] (setting [6]), in data set [4] (setting [7]), in data set [4] (setting [8]), in data set [4] (setting [9]), in data set [4] (setting [10]) and in data set [4] (setting [11]) was 2 µg/mL (≈ 6.21 µM) in each case. In addition, the MIC stood at 4 µg/mL (≈ 12.4 µM) in data set [4] (setting [12]), 2 µg/mL (≈ 6.21 µM) in data set [4] (setting [13]) and 4 µg/mL (≈ 12.4 µM) in data set [4] (setting [14]).
In the case of `FC(F)(F)c1ccccc1Sc1c[nH]c2ccc(Br)cc12` [Compound 174AV, 5-bromo-3-((2-(trifluoromethyl)phenyl)thio)-1H-indole], the MIC was 2 µg/mL (≈ 5.37 µM) in data set [4] (setting [6]); 2 µg/mL (≈ 5.37 µM) in data set [4] (setting [7]); 1 µg/mL (≈ 2.69 µM) in data set [4] (setting [8]); 1 µg/mL (≈ 2.69 µM) in data set [4] (setting [9]); 1 µg/mL (≈ 2.69 µM) in data set [4] (setting [10]); 2 µg/mL (≈ 5.37 µM) in data set [4] (setting [11]). Besides, the MIC in data set [4] (setting [12]), in data set [4] (setting [13]) and in data set [4] (setting [14]) was 2 µg/mL (≈ 5.37 µM) each time.
On to `FC(F)(F)c1ccc2[nH]cc(Sc3ccccc3Br)c2c1` [Compound 174AX, 3-((2-bromophenyl)thio)-5-(trifluoromethyl)-1H-indole], for which the MIC worked out at 2 µg/mL (≈ 5.37 µM) in data set [4] (setting [6]); 2 µg/mL (≈ 5.37 µM) in data set [4] (setting [7]); 1 µg/mL (≈ 2.69 µM) in data set [4] (setting [8]); 2 µg/mL (≈ 5.37 µM) in data set [4] (setting [9]); 1 µg/mL (≈ 2.69 µM) in data set [4] (setting [10]); 2 µg/mL (≈ 5.37 µM) in data set [4] (setting [11]). Further, the values for the MIC in data set [4] (setting [12]), in data set [4] (setting [13]) and in data set [4] (setting [14]) were 2 µg/mL (≈ 5.37 µM), 1 µg/mL (≈ 2.69 µM) and 1 µg/mL (≈ 2.69 µM), respectively.
For `Cc1ccccc1Sc1c[nH]c2ccc(Br)cc12` [Compound 174AY, 5-bromo-3-(o-tolylthio)-1H-indole], the MIC is 4 µg/mL (≈ 12.6 µM) in data set [4] (setting [6]); 4 µg/mL (≈ 12.6 µM) in data set [4] (setting [7]); 4 µg/mL (≈ 12.6 µM) in data set [4] (setting [8]); 4 µg/mL (≈ 12.6 µM) in data set [4] (setting [9]); 4 µg/mL (≈ 12.6 µM) in data set [4] (setting [10]); 2 µg/mL (≈ 6.28 µM) in data set [4] (setting [11]). Besides, the MIC in data set [4] (setting [12]), in data set [4] (setting [13]) and in data set [4] (setting [14]) was 2 µg/mL (≈ 6.28 µM) in each case.
For `Cc1[nH]c2ccc(Br)cc2c1Sc1ccccc1Br` [Compound 174AZ, 5-bromo-3-((2-bromophenyl)thio)-2-methyl-1H-indole], the response in data set [1] was half-maximal at 25.8 µg/mL (≈ 65 µM) (EC50). In addition, the “toxicity by body weight” value in data set [5] was “did not have significant toxicity”. Besides, the MIC was found to be 4 µg/mL (≈ 10.1 µM) in data set [4] (setting [10]), 2 µg/mL (≈ 5.04 µM) in data set [4] (setting [11]) and 2 µg/mL (≈ 5.04 µM) in data set [4] (setting [14]).
For `Clc1ccc2[nH]cc(Sc3ccc(Br)cc3)c2c1` [Compound 174C, 3-((4-bromophenyl)thio)-5-chloro-1H-indole], a half-maximal effect in data set [1] (EC50) was put at 25.4 µg/mL (≈ 75 µM).
For the compound `Brc1ccc(Sc2c[nH]c3cccc(Br)c23)cc1` [Compound 174D, 4-bromo-3-((4-bromophenyl)thio)-1H-indole], the EC50 in data set [1] turned out to be 23.2 µg/mL (≈ 60.6 µM).
The same measure, in the same setting: as for `Fc1ccc2[nH]cc(Sc3ccc(Br)cc3)c2c1` [Compound 174E, 3-((4-bromophenyl)thio)-5-fluoro-1H-indole], the figure is 23.6 µg/mL (≈ 73.2 µM).

For the origin of these results see patent US20250382268A1, “METHODS AND COMPOSITIONS FOR SELECTIVELY INHIBITING PATHOGENIC MICROBES” (priority 2019, published 2025).
